Where two headings read alike, the source gives them in different places. Marks after values point to notes of the source that are not given here.
Key:
[1] = rabbit plasma, 37° C.; for Sampling time/dissociation percent (%) 15 s / Sampling time/dissociation percent (%) 30 s: formula F derivatives
Method: (§1) 0.1 ml samples were taken from each of the solutions, added respectively to 1 ml of blood plasma of rabbit (taken from New Zealand white rabbits, treated according to conventional methods, anticoagulated with heparin) or 1 ml of blood plasma of rat (taken from live SD rats, treated according to conventional methods, anticoagulated with heparin), homogeneously mixed, and placed in a thermostatic water bath at 37° C. for incubation with time being recorded. Samples were taken at different time points after the experiment began, and 2 ml of acetonitrile was immediately added. The samples were shaken and centrifuged for 5 min (15,000 rpm), and the supernatant was then taken for HPLC analysis.

[2] = rat plasma, 37° C.; for Sampling time/dissociation percent (%) 5 s / Sampling time/dissociation percent (%) 15 s / Sampling time/dissociation percent (%) 30 s: formula F derivatives
Method: as §1

[3] = tested on: SD rats; experiment: ED50 and LD50 test concerning anesthesia (sequential method) in rats; format: in vivo; settings: for Rat ED50: anesthesia (loss of righting reflex); for Rat ED50 / Rat LD50: caudal vein injection
Method: (§2) Test samples for the experiment on rabbit were formulated to have corresponding concentrations based on the results from a preliminary test. […] Rats and mice were administered with samples having a fixed concentration of drugs, while the volume of administration altered according to actual situation. The volume of administration to rabbits was 1 mL/kg body weight.
(§3) ED50 and LD50 values concerning anesthesia were determined using a sequential method. Healthy KM mice (male), SD rats (male) and New Zealand White rabbits were used for test. […] For rabbits, the compounds were administered by injection at a constant rate via ear vein for 30 seconds. Before the test, a preliminary test was conducted to determine an approximate dosage (volume of administration) that leads to anesthetization (or death) of animals, which was set as the middle dosage in the formal test. […] The disappearance of righting reflex or death was used as indicators of pharmacological efficacy or toxicity, respectively. The formal test began with the administration of the middle dosage. If animals were anesthetized, a lower dosage was administered; if animals were not anesthetized, a higher dosage was administered, until the cycle was repeated for 3-4 times. LD50 and ED50 were calculated by a sequential method aot425 software. TI was calculated according to the following equation: TI=LD50/ED50.

[4] = tested on: New Zealand White rabbits; experiment: ED50 and LD50 test concerning anesthesia (sequential method) in rabbits; format: in vivo; settings: for LD50 / ED50: injection via ear vein; for LD50: death; for ED50: disappearance of righting reflex; for TI index: TI=LD50/ED50
Method: as §2, §3

[5] = tested on: Kunming mice; experiment: Latent period and persistent period of anesthesia in mice; format: in vivo; settings: intravenous injection
[6] = tested on: KM mice; experiment: ED50 and LD50 test concerning anesthesia (sequential method) in mice; format: in vivo; settings: for Mouse ED50: anesthesia (loss of righting reflex); for Mouse ED50 / Mouse LD50: caudal vein injection
Method: as §2, §3

[7] = In vitro dissociation of the water soluble taxane derivatives in blood plasma of rabbit; format: in vitro ADME, New Zealand white rabbits; settings: 37° C.
Method: The obtained water soluble taxane derivatives were formulated as 0.2 mg/ml aqueous solutions. […] After 5 min, 20 min and 60 min of incubation, 0.2 ml of solutions were respectively taken from each of the samples, and added to acetonitrile (0.4 ml) cooled to −20° C. for precipitation of protein.

[8] = tested on: human prostate cancer PC-3; settings: PC-3 xenograft, nude mice; 33.6 mg/kg, D0 IV, single dose; D20;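 note: human prostate cancer PC-3 cells implanted under the skin of nude mice to form the xenograft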
Text: Test of the inhibitory activity of the water soluble docetaxel derivatives on subcutaneously xenografted tumor of human prostate cancer PC-3 in nude mice: evaluating and comparing the inhibitory activity of the water soluble docetaxel derivatives and docetaxel on subcutaneously xenografted tumor of human prostate cancer PC-3 in nude mice.
Human prostate cancer PC-3 cells were subcutaneously inoculated into nude mice. After the tumor volume reached 100-150 mm^3, the animals were randomly divided into several groups, and administered with the water soluble docetaxel derivatives of the present invention and docetaxel, respectively once on the same day (D0). The tumor volume was measured 2-3 times per week, the animals were weighed and the data were recorded until day 20 (D20) after grouping.
The tumor volume (V) was calculated according to the equation: V=½×a×b^2, wherein a and b represent the length and the width, respectively.
T/C (%)=(T−T0)/(C−C0)×100, wherein T and C represent the tumor volume at the end of the experiment; and T0 and C0 represent the tumor volume at the beginning of the experiment.

[9] = In vitro dissociation of the water soluble taxane derivatives in blood plasma of rat; format: in vitro ADME, SD rats; settings: 37° C.
Method: The obtained water soluble taxane derivatives were formulated as 0.2 mg/ml aqueous solutions. […] After 2 min, 5 min and 10 min of incubation, 0.2 ml of solutions were respectively taken from each of the samples, and added to acetonitrile (0.4 ml) cooled to −20° C. for precipitation of protein.

[10] = tested on: mice; settings: intravenous, equimolar amounts to propofol
[11] = formula G derivatives, sampling time 15 s
[12] = dosage 2 * ED50, 3 mg/ml solution
[13] = dosage 2 * ED50, 6 mg/ml solution
[14] = 3 mg/ml solution, confirmation test
[15] = 6 mg/ml solution, confirmation test

| SMILES | TI Rat ([3]; 3 mg/ml solution) | TI Rat ([3]; 6 mg/ml solution) | Rat ED50 ([3]; 6 mg/ml solution) [mg/kg] | LD50 [4] | ED50 [4] | Latent Period [5, 12] [s] | Persistent period [5, 12] [s] | Latent Period [5, 13] [s] | Persistent period [5, 13] [s] | TI Mouse [6, 14] | TI Mouse ([6]; 3 mg/ml solution, first test) | TI Mouse [6, 15] | TI Mouse ([6]; 6 mg/ml solution, first test) | Mouse ED50 [6, 14] [mg/kg] | Mouse ED50 ([6]; 3 mg/ml solution, first test) [mg/kg] | Mouse ED50 [6, 15] [mg/kg] | Mouse ED50 ([6]; 6 mg/ml solution, first test) [mg/kg] | Mouse LD50 [6, 14] [mg/kg] | Mouse LD50 ([6]; 3 mg/ml solution, first test) [mg/kg] | Mouse LD50 ([6]; 6 mg/ml solution, first test) [mg/kg] | also measured |
| --- | --- | --- | --- | --- | --- | --- | --- | --- | --- | --- | --- | --- | --- | --- | --- | --- | --- | --- | --- | --- | --- |
| CC(C)c1cccc(C(C)C)c1OC(=O)[C@@H](F)CCOP(=O)([O-])[O-].[Na+].[Na+] [Compound G2, {1-[4-(2,6-diisopropylphenoxy)-4-oxo-3-(S)-3-fluoro-1-butyl]} phosphate monoester disodium salt] | 3.3 | 2.8 | 21.1 | 38.7 (35.1-41.3) mg/kg | 14.7 (12.6-19.1) mg/kg | 16.3 ± 0.8 | 383.6 ± 242.1 | 15.7 ± 2.3 | 571 ± 173 | 3.0 | 2.8* | 2.3 | 1.9* | 19.8 | 23.7 | 22.8 | 25.6 | 60.4 | 65.7 | 48.7 | Sampling time/dissociation percent (%) 15 S [1, 11]: 37.2%; Sampling time/dissociation percent (%) 30 S ([1]; formula G derivatives, sampling time 30 s): 54.3%; Sampling time/dissociation percent (%) 5 S ([2]; formula G derivatives, sampling time 5 s): 48.5%; Sampling time/dissociation percent (%) 15 S [2, 11]: 69.7% |
| CC(=O)O[C@@]12CO[C@@H]1C[C@H](O)[C@@]1(C)C(=O)[C@H](O)C3=C(C)[C@@H](OC(=O)[C@H](OC(=O)C(F)CCN(C)C)[C@@H](NC(=O)OC(C)(C)C)c4ccccc4)C[C@@](O)([C@@H](OC(=O)c4ccccc4)[C@H]21)C3(C)C.CS(=O)(=O)O (stereo partly drawn) [Compound C6, 2′-O-[4-(N,N-dimethyl)amino-2(R,S)-fluorobutyryl]docetaxel methanesulfonate] | – | – | – | – | – | – | – | – | – | – | – | – | – | – | – | – | – | – | – | – | dissociation percent ([7]; 5 min): 76.8%; dissociation percent ([7]; 20 min): 97.8%; dissociation percent ([7]; 60 min): 100%; T/C (%) D20 [8]: −76%; dissociation percent ([9]; 2 min): 59.1%; dissociation percent ([9]; 5 min): 93.3%; dissociation percent ([9]; 10 min): 100% |
| CC(C)c1cccc(C(C)C)c1OC(=O)C(F)CC(=O)[O-].[Na+] [Compound F7, propofol 3-carboxyl-2(R)-fluorobutyrate sodium salt] | 3.0 | 3.5 | 12.5 | 36.7 (33.8-39.4) mg/kg | 13.9 (11.1-16.8) mg/kg | 20.2 ± 0.6 | 335.5 ± 218.1 | 16.2 ± 2.2 | 517 ± 231 | 2.6 | 2.8* | 3.1 | 2.4* | 19.2 | 21.4 | 18.1 | 20.7 | 51.6 | 59.8 | 51.2 | Sampling time/dissociation percent (%) 15 s ([1]; sampling time 15 s): 46.3%; Sampling time/dissociation percent (%) 30 s ([1]; sampling time 30 s): 72.8%; Sampling time/dissociation percent (%) 5 s ([2]; sampling time 5 s): 58.8%; Sampling time/dissociation percent (%) 15 s ([2]; sampling time 15 s): 71.3%; Sampling time/dissociation percent (%) 30 s [2]: 85.4%; Rat ED50 ([3]; 3 mg/ml solution): 15.7 mg/kg; Rat LD50 ([3]; 3 mg/ml solution): 47.4 mg/kg; Rat LD50 ([3]; 6 mg/ml solution): 44.4 mg/kg; TI index [4]: 2.6; Mouse LD50 [6, 15]: 56.6 mg/kg |
| CC(C)c1cccc(C(C)C)c1OC(=O)[C@H](F)CCN(C)C.Cl [Compound E2, Propofol 4-(N,N-dimethyl)amino-2(R)-fluorobutyrate Hydrochloride] | 3.8 | 3.1 | 10.1 | 28 (23.0-34.2) mg/kg | 8 (5.7-10.5) mg/kg | 14.6 ± 0.9 | 383.6 ± 242.1 | 14.2 ± 1.9 | 543 ± 231 | 3^ | 4* | 3.7 | 3.6* | 15.4 | 17.9 | 13.0 | 15.2 | 46.9 | 71.8 | 55.1 | dissociation percent ([1]; 15 s): 97.7%; dissociation percent ([1]; 30 s): 100%; dissociation percent ([2]; 5 s): 100%; Rat ED50 ([3]; 3 mg/ml solution): 9.8 mg/kg; Rat LD50 ([3]; 3 mg/ml solution): 37.5 mg/kg; Rat LD50 ([3]; 6 mg/ml solution): 30.7 mg/kg; TI index [4]: 3.5; Mouse LD50 [6, 15]: 48.0 mg/kg |
| CC(=O)O[C@@]12CO[C@@H]1C[C@H](O)[C@@]1(C)C(=O)[C@H](O)C3=C(C)[C@@H](OC(=O)[C@H](OC(=O)[C@H](F)CCN(C)C)[C@@H](NC(=O)OC(C)(C)C)c4ccccc4)C[C@@](O)([C@@H](OC(=O)c4ccccc4)[C@H]21)C3(C)C.CS(=O)(=O)O [Compound C4, 2′-O-[4-(N,N-dimethyl)amino-2(R)-fluorobutyryl]docetaxel methanesulfonate] | – | – | – | – | – | – | – | – | – | – | – | – | – | – | – | – | – | – | – | – | dissociation percent ([7]; 5 min): 81.6%; dissociation percent ([7]; 20 min): 94.8%; dissociation percent ([7]; 60 min): 100%; T/C (%) D20 [8]: −77%; dissociation percent ([9]; 2 min): 59.2%; dissociation percent ([9]; 5 min): 93.4%; dissociation percent ([9]; 10 min): 100% |
| CC(C)c1cccc(C(C)C)c1OC(=O)[C@H](F)CCN(C)C.Cl [J′] | – | – | – | – | – | – | – | – | – | – | – | – | – | – | – | – | – | – | – | – | latent period for anesthesia compared to propofol [10]: almost equal to those of propofol; neurotoxic response after waking up [10]: no neurotoxic response was observed; persistent period for anesthesia compared to propofol [10]: almost equal to those of propofol |
| CC(C)c1cccc(C(C)C)c1OC(=O)C(F)CCC(=O)[O-].[Na+] (racemic) [Compound F1, propofol 4-carboxyl-2(R,S)-fluorovalerate sodium salt] | 3.0 | 3.7 | 11.3 | 34.4 (32.1-36.5) mg/kg | 12.2 (10.6-14.6) mg/kg | 18.6 ± 0.7 | 349.7 ± 229.4 | 15.2 ± 1.4 | 523 ± 248 | 2.8 | 3* | 3.3 | 2.7* | 18.6 | 20.8 | 16.7 | 18.2 | 52.3 | 63.4 | 49.7 | Sampling time/dissociation percent (%) 15 s ([1]; sampling time 15 s): 47.5%; Sampling time/dissociation percent (%) 30 s ([1]; sampling time 30 s): 75.5%; Sampling time/dissociation percent (%) 5 s ([2]; sampling time 5 s): 64.1%; Sampling time/dissociation percent (%) 15 s ([2]; sampling time 15 s): 70.2%; Sampling time/dissociation percent (%) 30 s [2]: 86.7%; Rat ED50 ([3]; 3 mg/ml solution): 14.6 mg/kg; Rat LD50 ([3]; 3 mg/ml solution): 44.1 mg/kg; Rat LD50 ([3]; 6 mg/ml solution): 42.3 mg/kg; TI index [4]: 2.8; Mouse LD50 [6, 15]: 55.4 mg/kg |
| CC(=O)O[C@@]12CO[C@@H]1C[C@H](O)[C@@]1(C)C(=O)[C@H](O)C3=C(C)[C@@H](OC(=O)[C@H](OC(=O)[C@@H](F)CCN(C)C)[C@@H](NC(=O)OC(C)(C)C)c4ccccc4)C[C@@](O)([C@@H](OC(=O)c4ccccc4)[C@H]21)C3(C)C.CS(=O)(=O)O [Compound C5, 2′-O-[4-(N,N-dimethyl)amino-2(S)-fluorobutyryl]docetaxel methanesulfonate] | – | – | – | – | – | – | – | – | – | – | – | – | – | – | – | – | – | – | – | – | dissociation percent ([7]; 5 min): 81.2%; dissociation percent ([7]; 20 min): 93.1%; dissociation percent ([7]; 60 min): 100%; T/C (%) D20 [8]: −76%; dissociation percent ([9]; 2 min): 58.9%; dissociation percent ([9]; 5 min): 93.3%; dissociation percent ([9]; 10 min): 100% |
| CC(C)c1cccc(C(C)C)c1OC(=O)CCCN(C)C.Cl [J′-1, reference compound] | – | – | – | – | – | – | – | – | – | – | – | – | – | – | – | – | – | – | – | – | latent period for anesthesia compared to propofol [10]: much longer than those of propofol; neurotoxic response after waking up [10]: transient hemiplegia after waking up; persistent period for anesthesia compared to propofol [10]: much longer than those of propofol |

Reference: patent US10239851B2 (priority 2014, dated 2019)
